{"source": "patent US7183320B2", "about": "“Benzoylsulfonamides and sulfonylbenzamidines for use as antitumour agents” (Eli Lilly and Company, priority 2002, dated 2007)", "format_in_all_cases": "in vivo", "key": {"[1]": {"system": "HUMAN SQUAMOUS CELL LUNG CARCINOMA MRI-H165", "experiment": "Early stage human squamous cell lung carcinoma MRI-H165 xenograft (Table XI)", "settings": "total dose 600 mg/kg: 100 mg/kg/injection IV on days 3–5 and 10–12; Balb/C SCID female mice", "excerpt": "(§1) Conventional Murine Tumor and Human Tumor Xenouraft Assays\n(§2) Inhibition of tumors transplanted into mice is an accepted procedure for studying the efficacy of antitumor agents (Corbett, et al., In vivo Methods for Screening and Preclinical Testing; Use of rodent solid tumors for drug discovery., In: Anticancer Drug Development Guide: Preclinical Screening, Clinical Trials, and Approval, B. Teicher (ed), Humana Press Inc., Totowa, N.J., Chapter 5, pages 75–99 (1997); (Corbett, et al., Int., J. Parmacog., 33, Supplement, 102–122 (1995)). Murine tumors or human xenographs were implanted essentially as described by Corbett in In vivo Methods for Screening and Preclimical Testing; Use of rodent solid tumors for drug discovery. Briefly, the murine tumor or human xenograph was implanted subcutaneously using either 12-gauge trocar implants or counted number of cells. The location for the trocar insertion is midway between the axillary and inguinal region along the side of the mouse. The trocar is slipped approximately ¾ of an inch subcutaneously up toward the axilla before discharging the tumor fragment, and pinching the skin as the trocar is removed., Alternatively, human tumor cells prepared from a […] of donor tumors (5×10^6 cells) were implanted subcutaneously in a hind-leg of a male or female nude mouse (Charles River). Either a test compound in vehicle or vehicle alone was administered by intravenous bolus injection (iv), intraperitoneal injection (ip), or oral gavage (po). Each treatment group, as well as a group of untreated control animals, consisted of five animals per group in each experiment. Subcutaneous tumor response was monitored by tumor volume measurement performed twice each week over the course of the experiment (60–120 days). Body weights were taken as a general measure of toxicity. The subcutaneous tumor data were analyzed by determining the median tumor weight for each treatment group over the course of the experiment and calculating the tumor growth delay as the difference in days for the treatment versus the control tumors to reach a volume of either 500 or 1000 mm^3.\n(§3) The compound of Example 110 was tested against a variety of murine and human tumors substantially as described supra. The parameters measured in each experiment are summarized in the following paragraphs. • Tumor Weight(mg)=(a×b^2)/2 where a=tumor length (mm) and b=tumor width (mm). • Tumor Growth Delay=T−C where T is the median time (days) required for the treatment group tumors to reach a predetermined size, and C is the median time (days) for the control group tumors to reach the same size. Tumor-free survivors are excluded from this calculation, and are tabulated separately (Tumor Free).\n(§4) [formula] • where Tumor Growth Delay is as previously defined and Td is tumor volume doubling time (days), estimated from the best fit straight line from a log-linear growth plot of the control group of tumors in exponential growth (100–800 mg range) • % T/C mass—The treatment and control groups are measured when the control group tumors reach approximately 700 to 1200 mg in size (median group). The median tumor weight of each group is determined (including zeros). The T/C value in percent is an indication of antitumor effectiveness. A T/C≦42% is considered significant antitumor activity. A T/C<10% is considered to indicate highly significant antitumor activity. • Body Weight Loss Nadir—A body weight loss nadir (mean of group) of greater than 20% or drug deaths greater than 20% are considered to indicate an excessively toxic dosage in single course trials. • Activity Rating—the Activity Rating is derived from the Log Kill according to the following table: […]"}, "[2]": {"system": "MURINE COLON ADENOCARCINOMA-38", "experiment": "Early stage murine colon adenocarcinoma-38 (Table II)", "settings": "BDF1 male mice", "excerpt": "as §1, §2, §3, §4"}, "[3]": {"system": "MURINE MAMMARY ADENOCARCINOMA-16/C", "experiment": "Early stage murine mammary adenocarcinoma-16/C (Table III)", "settings": "C3H female mice", "excerpt": "as §1\nBriefly, the murine tumor or human xenograph was implanted subcutaneously using either 12-gauge trocar implants or counted number of cells. The location for the trocar insertion is midway between the axillary and inguinal region along the side of the mouse. The trocar is slipped approximately ¾ of an inch subcutaneously up toward the axilla before discharging the tumor fragment, and pinching the skin as the trocar is removed., Alternatively, human tumor cells prepared from a […] of donor tumors (5×10^6 cells) were implanted subcutaneously in a hind-leg of a male or female nude mouse (Charles River). Either a test compound in vehicle or vehicle alone was administered by intravenous bolus injection (iv), intraperitoneal injection (ip), or oral gavage (po). Each treatment group, as well as a group of untreated control animals, consisted of five animals per group in each experiment. […] Body weights were taken as a general measure of toxicity. The subcutaneous tumor data were analyzed by determining the median tumor weight for each treatment group over the course of the experiment and calculating the tumor growth delay as the difference in days for the treatment versus the control tumors to reach a volume of either 500 or 1000 mm^3.\nThe parameters measured in each experiment are summarized in the following paragraphs. • Tumor Weight(mg)=(a×b^2)/2 where a=tumor length (mm) and b=tumor width (mm). • Tumor Growth Delay=T−C where T is the median time (days) required for the treatment group tumors to reach a predetermined size, and C is the median time (days) for the control group tumors to reach the same size. Tumor-free survivors are excluded from this calculation, and are tabulated separately (Tumor Free).\nThe median tumor weight of each group is determined (including zeros). The T/C value in percent is an indication of antitumor effectiveness."}, "[4]": {"settings": "total dose 272 mg/kg IV: 20 mg/kg day 3, 40 day 4, 106 mg/kg/injection QD days 5–6"}, "[5]": {"settings": "total dose 920 mg/kg IV: 40 mg/kg day 3, 80 day 4, 160 mg/kg/injection QD days 5–9"}, "[6]": {"settings": "total dose 1200 mg/kg IV: 80 mg/kg day 3, 160 day 4, 240 day 5, 120 mg/kg/injection BID days 7–9"}, "[7]": {"settings": "total dose 560 mg/kg by IV infusion over 3 hours on day 3"}, "[8]": {"settings": "total dose 560 mg/kg: 280 mg/kg by IV infusion on days 3 and 7"}, "[9]": {"settings": "total dose 680 mg/kg IV: 80 mg/kg/injection days 3–6, 120 mg/kg/injection days 7–9"}}}
{"smiles": "O=C(NS(=O)(=O)c1ccccc1)c1ccc(Cl)cc1Cl", "note": "[Example 110, N-[2,4-dichlorobenzoyl]phenylsulfonamide]", "values": [{"measurement": "% BODY WT LOSS AT NADIR", "setting": "[1]", "result": "−2.1", "unit": "% ^"}, {"measurement": "% T/C MASS", "setting": "[1]", "result": 0, "unit": "%"}, {"measurement": "ACTIVITY RATING", "setting": "[1]", "result": "++++ (HIGHLY ACTIVE >2.8)"}, {"measurement": "DRUG DEATHS", "setting": "[1]", "result": "0/5"}, {"measurement": "GROWTH DELAY", "setting": "[1]", "result": 31, "unit": "days"}, {"measurement": "LOG KILL", "setting": "[1]", "result": 3.7}, {"measurement": "TUMOR FREE AT DAY 55", "setting": "[1]", "result": "0/5"}, {"measurement": "% BODY WT LOSS AT NADIR", "setting": "[2]; [4]", "result": "+3.1%"}, {"measurement": "% T/C MASS", "setting": "[2]; [4]", "result": 0, "unit": "%"}, {"measurement": "ACTIVITY RATING", "setting": "[2]; [4]", "result": "++++ (HIGHLY ACTIVE >2.8)"}, {"measurement": "DRUG DEATHS", "setting": "[2]; [4]", "result": "0/5"}, {"measurement": "GROWTH DELAY (DAYS)", "setting": "[2]; [4]", "result": "All cures"}, {"measurement": "LOG KILL", "setting": "[2]; [4]", "result": ">4.5"}, {"measurement": "TUMOR FREE AT DAY 144", "setting": "[2]; [4]", "result": "5/5"}, {"measurement": "% BODY WT LOSS AT NADIR", "setting": "[2]; [5]", "result": "+7.7%"}, {"measurement": "% T/C MASS", "setting": "[2]; [5]", "result": 0, "unit": "%"}, {"measurement": "ACTIVITY RATING", "setting": "[2]; [5]", "result": "++++ (HIGHLY ACTIVE >2.8)"}, {"measurement": "DRUG DEATHS", "setting": "[2]; [5]", "result": "0/5"}, {"measurement": "GROWTH DELAY (DAYS)", "setting": "[2]; [5]", "result": "All cures"}, {"measurement": "LOG KILL", "setting": "[2]; [5]", "result": ">4.5"}, {"measurement": "TUMOR FREE AT DAY 144", "setting": "[2]; [5]", "result": "5/5"}, {"measurement": "% BODY WT LOSS AT NADIR", "setting": "[2]; [6]", "result": "−5.2", "unit": "%"}, {"measurement": "% T/C MASS", "setting": "[2]; [6]", "result": 0, "unit": "%"}, {"measurement": "ACTIVITY RATING", "setting": "[2]; [6]", "result": "++++ (HIGHLY ACTIVE >2.8)"}, {"measurement": "GROWTH DELAY (DAYS)", "setting": "[2]; [6]", "result": "All cures"}, {"measurement": "LOG KILL", "setting": "[2]; [6]", "result": ">4.5"}, {"measurement": "TUMOR FREE AT DAY 144", "setting": "[2]; [6]", "result": "6/6"}, {"measurement": "% BODY WT LOSS AT NADIR", "setting": "[3]; [7]", "result": "DEATH"}, {"measurement": "ACTIVITY RATING", "setting": "[3]; [7]", "result": "DEATH"}, {"measurement": "DRUG DEATHS", "setting": "[3]; [7]", "result": "5/5"}, {"measurement": "GROWTH DELAY (DAYS)", "setting": "[3]; [7]", "result": "DEATH"}, {"measurement": "TUMOR FREE AT DAY 14", "setting": "[3]; [7]", "result": "0/5"}, {"measurement": "% BODY WT LOSS AT NADIR", "setting": "[3]; [8]", "result": "+10.9%"}, {"measurement": "% T/C MASS", "setting": "[3]; [8]", "result": 37, "unit": "%"}, {"measurement": "ACTIVITY RATING", "setting": "[3]; [8]", "result": "+ (0.7–1.2)"}, {"measurement": "DRUG DEATHS", "setting": "[3]; [8]", "result": "0/4"}, {"measurement": "GROWTH DELAY", "setting": "[3]; [8]", "result": 2.0, "unit": "days"}, {"measurement": "LOG KILL", "setting": "[3]; [8]", "result": 0.6}, {"measurement": "TUMOR FREE AT DAY 14", "setting": "[3]; [8]", "result": "0/4"}, {"measurement": "% BODY WT LOSS AT NADIR", "setting": "[3]; [9]", "result": "+7.6%"}, {"measurement": "% T/C MASS", "setting": "[3]; [9]", "result": 39, "unit": "%"}, {"measurement": "ACTIVITY RATING", "setting": "[3]; [9]", "result": "+ (0.7–1.2)"}, {"measurement": "DRUG DEATHS", "setting": "[3]; [9]", "result": "0/5"}, {"measurement": "GROWTH DELAY", "setting": "[3]; [9]", "result": 2.5, "unit": "days"}, {"measurement": "LOG KILL", "setting": "[3]; [9]", "result": 0.75}, {"measurement": "TUMOR FREE AT DAY 14", "setting": "[3]; [9]", "result": "0/5"}]}
